{
  "source": "paper PMC4657039",
  "about": "(Assay and Drug Development Technologies, 2014)",
  "key": {"human Cav2.1/β4/α2δ1": {"biological_target": "human Cav2.1/β4/α2δ1 (Homo sapiens, UniProt O00555)", "assay_type": "cell-based"}, "human Cav2.2/β3/α2δ1 [1]": {"biological_target": "T1, human Cav2.2/β3/α2δ1 (Homo sapiens, UniProt Q00975)", "assay_type": "cell-based"}, "human Cav3.2": {"biological_target": "human Cav3.2 (Homo sapiens, UniProt O95180)", "sequence (O95180 whole entry)": "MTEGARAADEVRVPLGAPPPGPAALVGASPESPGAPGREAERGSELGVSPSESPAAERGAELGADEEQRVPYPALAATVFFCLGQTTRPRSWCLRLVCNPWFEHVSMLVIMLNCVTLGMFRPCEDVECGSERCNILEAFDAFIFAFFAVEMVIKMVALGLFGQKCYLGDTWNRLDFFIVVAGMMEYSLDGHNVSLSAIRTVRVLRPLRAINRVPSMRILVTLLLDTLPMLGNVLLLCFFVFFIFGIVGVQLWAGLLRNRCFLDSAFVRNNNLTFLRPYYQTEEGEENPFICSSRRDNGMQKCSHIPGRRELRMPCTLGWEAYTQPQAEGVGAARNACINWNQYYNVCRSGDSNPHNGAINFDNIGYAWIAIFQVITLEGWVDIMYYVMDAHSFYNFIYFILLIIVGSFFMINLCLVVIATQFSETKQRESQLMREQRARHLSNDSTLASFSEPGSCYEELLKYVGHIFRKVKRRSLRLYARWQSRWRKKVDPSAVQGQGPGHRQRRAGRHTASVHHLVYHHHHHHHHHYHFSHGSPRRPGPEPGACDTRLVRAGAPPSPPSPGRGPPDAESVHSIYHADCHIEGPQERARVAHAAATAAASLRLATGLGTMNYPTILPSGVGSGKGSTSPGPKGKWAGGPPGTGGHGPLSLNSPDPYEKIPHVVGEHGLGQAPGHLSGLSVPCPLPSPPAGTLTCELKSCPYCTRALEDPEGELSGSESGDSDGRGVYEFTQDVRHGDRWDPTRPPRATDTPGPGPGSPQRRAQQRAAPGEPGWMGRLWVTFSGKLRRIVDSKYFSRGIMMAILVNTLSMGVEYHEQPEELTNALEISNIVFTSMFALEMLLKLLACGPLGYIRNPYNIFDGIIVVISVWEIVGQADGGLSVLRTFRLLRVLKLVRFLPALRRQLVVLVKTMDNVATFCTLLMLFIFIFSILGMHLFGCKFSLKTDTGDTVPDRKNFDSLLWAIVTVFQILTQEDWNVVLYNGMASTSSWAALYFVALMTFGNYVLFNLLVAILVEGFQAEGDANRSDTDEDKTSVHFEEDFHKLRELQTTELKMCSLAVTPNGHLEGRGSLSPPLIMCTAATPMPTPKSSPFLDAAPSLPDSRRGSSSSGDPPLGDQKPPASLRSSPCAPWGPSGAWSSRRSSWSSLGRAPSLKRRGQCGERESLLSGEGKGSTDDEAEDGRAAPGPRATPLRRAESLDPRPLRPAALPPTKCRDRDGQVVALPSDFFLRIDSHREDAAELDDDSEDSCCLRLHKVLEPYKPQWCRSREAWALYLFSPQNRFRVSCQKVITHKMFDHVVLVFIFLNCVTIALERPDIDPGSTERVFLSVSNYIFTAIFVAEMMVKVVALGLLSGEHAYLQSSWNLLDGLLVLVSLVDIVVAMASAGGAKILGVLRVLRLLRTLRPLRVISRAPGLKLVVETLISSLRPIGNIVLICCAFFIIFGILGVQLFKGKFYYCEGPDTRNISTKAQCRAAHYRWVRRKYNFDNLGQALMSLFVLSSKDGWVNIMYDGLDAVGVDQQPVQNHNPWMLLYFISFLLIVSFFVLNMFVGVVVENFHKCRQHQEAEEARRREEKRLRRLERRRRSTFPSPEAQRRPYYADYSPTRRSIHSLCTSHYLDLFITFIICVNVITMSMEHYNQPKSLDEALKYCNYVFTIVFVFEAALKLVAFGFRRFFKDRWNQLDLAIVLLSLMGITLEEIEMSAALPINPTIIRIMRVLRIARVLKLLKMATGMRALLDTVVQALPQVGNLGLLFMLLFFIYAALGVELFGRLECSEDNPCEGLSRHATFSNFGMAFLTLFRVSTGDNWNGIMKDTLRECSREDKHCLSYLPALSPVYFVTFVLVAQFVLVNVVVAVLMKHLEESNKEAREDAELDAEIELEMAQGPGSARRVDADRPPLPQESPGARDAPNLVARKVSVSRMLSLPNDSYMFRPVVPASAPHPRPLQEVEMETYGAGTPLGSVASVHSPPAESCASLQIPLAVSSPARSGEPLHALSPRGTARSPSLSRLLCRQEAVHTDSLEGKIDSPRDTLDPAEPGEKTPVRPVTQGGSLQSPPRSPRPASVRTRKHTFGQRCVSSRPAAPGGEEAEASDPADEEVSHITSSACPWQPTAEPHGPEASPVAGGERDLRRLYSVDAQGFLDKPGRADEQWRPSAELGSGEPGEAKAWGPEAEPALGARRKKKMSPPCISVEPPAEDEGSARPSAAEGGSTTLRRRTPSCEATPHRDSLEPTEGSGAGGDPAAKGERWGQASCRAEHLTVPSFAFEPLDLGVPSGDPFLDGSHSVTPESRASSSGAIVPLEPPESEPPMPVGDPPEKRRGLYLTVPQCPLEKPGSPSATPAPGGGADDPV", "assay_type": "cell-based"}, "human Cav1.2/β2/α2δ1": {"biological_target": "human Cav1.2/β2/α2δ1 (Homo sapiens, UniProt Q13936)"}, "human Cav2.2/β3/α2δ1 [2]": {"biological_target": "T1, human Cav2.2/β3/α2δ1", "assay": "IonWorks Barracuda repetitive test pulse train", "assay_type": "cell-based", "conditions": "Cav2.2, 30 pulse train 0.1 Hz"}},
  "data": [
    {"smiles": "COC(=O)C1=C(C)NC(C)=C([N+](=O)[O-])[C@H]1c1ccccc1C(F)(F)F", "note": "[BAY K8644, (S)-(−)-BAY K8644]", "values": [
      {"measurement": "effect on Cav2.1 at high concentration", "setting": "human Cav2.1/β4/α2δ1; concentrations ≥10 μM", "value": "nonspecific inhibition"},
      {"measurement": "effect on Cav2.2 at high concentration", "setting": "human Cav2.2/β3/α2δ1 [1]; concentrations ≥10 μM", "value": "nonspecific inhibition"},
      {"measurement": "effect on Cav3.2 at high concentration", "setting": "human Cav3.2; concentrations ≥10 μM", "value": "nonspecific inhibition"},
      {"measurement": "effect on Cav1.2 currents", "setting": "human Cav1.2/β2/α2δ1; 0.3 μM, test pulse 10 mV, holding −90 mV, 60-s CP to −50 mV", "value": "potentiated"},
      {"measurement": "effect on Cav1.2 at high concentration", "setting": "human Cav1.2/β2/α2δ1; concentrations ≥10 μM", "value": "nonspecific inhibition"},
      {"measurement": "extent of potentiation of Cav1.2 channels", "setting": "human Cav1.2/β2/α2δ1; dose–response, Fig. 2B", "value": "twofold potentiation"}
    ]},
    {"smiles": "COCC(=O)O[C@]1(CCN(C)CCCc2nc3ccccc3[nH]2)CCc2cc(F)ccc2[C@@H]1C(C)C", "note": "[Mibefradil, mibefradil]", "values": [
      {"measurement": "Cav2.2 blocking characteristics in multiple mode assay", "setting": "human Cav2.2/β3/α2δ1 [1]; current traces Fig. 5B, 10 μM mibefradil, 30 μM verapamil", "value": "use-dependent, but not inactivation-dependent block augmentation"},
      {"measurement": "potency of use-dependent block in Cav3.2 versus Cav1.2", "setting": "human Cav3.2; use-dependent block, multiple mode assay", "value": "fourfold more potent"},
      {"measurement": "potency of inhibition at TP30 compared with TP1", "setting": "human Cav2.2/β3/α2δ1 [2]", "value": "about seven times more potent"}
    ]},
    {"smiles": "COC(=O)C1=C(C)NC(C)=C(C(=O)OC)C1c1ccccc1[N+](=O)[O-]", "note": "[Nifedipine, nifedipine]", "values": [
      {"measurement": "sensitivity of Cav3.2 channels", "setting": "human Cav3.2; concentrations up to 3 μM (not shown)", "value": "insensitive"}
    ]},
    {"smiles": "O=c1[nH]c2ccccc2n1C1CCN(CCCC(c2ccc(F)cc2)c2ccc(F)cc2)CC1", "note": "[Pimozide, pimozide]", "values": [
      {"measurement": "IC50", "setting": "human Cav2.1/β4/α2δ1", "value": "> 30", "unit": "µM"},
      {"measurement": "IC50", "setting": "human Cav2.2/β3/α2δ1 [1]", "value": "> 30", "unit": "µM"}
    ]}
  ]
}
